Test results: patent US20210261642A1, “SOLUBILITY OF GLP-1 PEPTIDE” (Novo Nordisk A/S, priority 2017, published 2021)

Test: Assay (I): Determination of Solubility (96-well plate, pH 3.0-11.0, organic solvent 0-70% w/w, UV absorption at 280 nm)
Assay type: physicochemical
Conditions: for Peptide concentration after 180 min / Peptide concentration after 24 h / Peptide concentration after 5 min: Method 1; for GLP-1 peptide concentration: Method 2 (precipitation), MeCN 57.3% w/w, 5° C.
Method: Assay (I): Determination of Solubility
96-Well Plate Preparation
96-well plates containing target peptide in a solid form were prepared in one of two ways:
Method 1 (evaporation): Addition of 100 μl stock solution of said peptide at a concentration of 4-6 mg/ml to each well of a 96-well half area plate (150 μl well size). Subsequently the solvent was evaporated by applying a vacuum until the solvent was completely removed.
Method 2 (precipitation): Addition of a certain volume of a stock solution of said peptide containing to each well of a 96-well half area plate followed by the addition of a certain volume of concentrated phosphoric acid to obtain a pH of 4.6 followed by addition of a certain volume of ethanol resulting in a final ethanol concentration of 20% v/v. Subsequently the plate was stored at 4° C. for 1 h and then centrifuged at 4,000 rpm for 20 min. Finally the supernatant was removed. The concentration of the stock solution was chosen in a way that the final amount of peptide after supernatant removal was >0.4 mg per well.
In both cases the stock solution was prepared by adding de-ionized water to a certain amount of powder of said peptide followed by a stepwise addition of small amounts of a concentrated sodium hydroxide solution until said peptide was completely in solution.
To determine solubility of a target peptide at different pH and organic solvent concentrations, two different buffer systems were used in independent experiments to cover the whole range from pH 3.0 to pH 11.0. Buffer system 1 covers pH 3.0-7.5 and buffer system 2 covers pH 7.5-11.0. For each buffer system 96 different solvent compositions were premixed in the following way: • 1. A low pH buffer (adjusted to either pH 3.0 or pH 7.5) and a high pH buffer (adjusted to either pH 7.5 or pH 11.0) were mixed at 8 different ratios to obtain values between pH 3.0 and pH 7.5 or pH 7.5 and pH 11.0, respectively. The total volume after mixing was 300 μl. • 2. 12 different amounts of organic solvent were then added to these buffers to obtain organic solvent (e.g. ethanol) concentrations between 0 and 70% w/w. • 3. Water was then added to obtain a total weight of 1.0 g of solvent in each well.
After preparing the 96 different solvent systems, 100 μl of each system was transferred to the 96-well plate containing the solid form of the target peptide (prepared as described in the section “96-well plate preparation”). The plate was then stored at a given temperature (between 5° C. and 70° C.) for a given time on a rotating shaker set to 400 rpm. At regular time intervals the plate was centrifuged (4,000 rpm for 10 min) and a 10 μl sample was taken from each well. The samples were then analysed by UV absorption at 280 nm for peptide quantification. Peptide concentration results are given as UV absorption at 280 nm of the sample subtracted UV absorption at 280 nm of a well comprising 10 μl water.
The buffers used were as follows: • Buffer system 1 (for the pH range from pH 3.0-7.5)
• Buffer system 2 (for the pH ranae from pH 7.5-11.0)
Solubility of liraglutide was determined using Assay (I) described herein. Liraglutide was prepared using Method 1 (evaporation) or Method 2 (precipitation) as described in subsection “96-well plate preparation”.

Peptide concentration after 180 min (MeCN 63.6% w/w, pH 9.5, 5° C.): 0.5 mg/mL | Peptide concentration after 24 h (MeCN 63.6% w/w, pH 9.5, 5° C.): 1.4 mg/mL | Peptide concentration after 5 min (MeCN 63.6% w/w, pH 10.0, 5° C.): 0.2 mg/mL | Peptide concentration after 180 min (MeCN 63.6% w/w, pH 10.0, 5° C.): 0.3 mg/mL | Peptide concentration after 24 h (MeCN 63.6% w/w, pH 10.0, 5° C.): 0.7 mg/mL | Peptide concentration after 5 min (MeCN 63.6% w/w, pH 10.5, 5° C.): 0.2 mg/mL | Peptide concentration after 180 min (MeCN 63.6% w/w, pH 10.5, 5° C.): 0.3 mg/mL | Peptide concentration after 24 h (MeCN 63.6% w/w, pH 10.5, 5° C.): 0.6 mg/mL | Peptide concentration after 5 min (MeCN 63.6% w/w, pH 11.0, 5° C.): 0.5 mg/mL | Peptide concentration after 180 min (MeCN 63.6% w/w, pH 11.0, 5° C.): 0.6 mg/mL | Peptide concentration after 24 h (MeCN 63.6% w/w, pH 11.0, 5° C.): 1.3 mg/mL | Peptide concentration after 5 min (MeCN 70.0% w/w, pH 5.6, 5° C.): 0.2 mg/mL | Peptide concentration after 180 min (MeCN 70.0% w/w, pH 5.6, 5° C.): 0.3 mg/mL | Peptide concentration after 24 h (MeCN 70.0% w/w, pH 5.6, 5° C.): 0.4 mg/mL | Peptide concentration after 5 min (MeCN 70.0% w/w, pH 6.2, 5° C.): 0.2 mg/mL | Peptide concentration after 180 min (MeCN 70.0% w/w, pH 6.2, 5° C.): 0.3 mg/mL | Peptide concentration after 24 h (MeCN 70.0% w/w, pH 6.2, 5° C.): 0.5 mg/mL | Peptide concentration after 5 min (MeCN 70.0% w/w, pH 6.9, 5° C.): 0.2 mg/mL | Peptide concentration after 180 min (MeCN 70.0% w/w, pH 6.9, 5° C.): 0.3 mg/mL | Peptide concentration after 24 h (MeCN 70.0% w/w, pH 6.9, 5° C.): 0.5 mg/mL | Peptide concentration after 5 min (MeCN 70.0% w/w, pH 7.5, 5° C.): 0.3 mg/mL | Peptide concentration after 180 min (MeCN 70.0% w/w, pH 7.5, 5° C.): 0.4 mg/mL | Peptide concentration after 24 h (MeCN 70.0% w/w, pH 7.5, 5° C.): 0.8 mg/mL | Peptide concentration after 5 min (MeCN 70.0% w/w, pH 8.0, 5° C.): 0.3 mg/mL | Peptide concentration after 180 min (MeCN 70.0% w/w, pH 8.0, 5° C.): 0.4 mg/mL | Peptide concentration after 24 h (MeCN 70.0% w/w, pH 8.0, 5° C.): 0.6 mg/mL | Peptide concentration after 5 min (MeCN 70.0% w/w, pH 8.5, 5° C.): 0.2 mg/mL | Peptide concentration after 180 min (MeCN 70.0% w/w, pH 8.5, 5° C.): 0.4 mg/mL | Peptide concentration after 24 h (MeCN 70.0% w/w, pH 8.5, 5° C.): 0.7 mg/mL | Peptide concentration after 5 min (MeCN 70.0% w/w, pH 9.0, 5° C.): 0.2 mg/mL | Peptide concentration after 180 min (MeCN 70.0% w/w, pH 9.0, 5° C.): 0.4 mg/mL | Peptide concentration after 24 h (MeCN 70.0% w/w, pH 9.0, 5° C.): 0.9 mg/mL | Peptide concentration after 5 min (MeCN 70.0% w/w, pH 9.5, 5° C.): 0.2 mg/mL | Peptide concentration after 180 min (MeCN 70.0% w/w, pH 9.5, 5° C.): 0.3 mg/mL | Peptide concentration after 24 h (MeCN 70.0% w/w, pH 9.5, 5° C.): 0.5 mg/mL | Peptide concentration after 5 min (MeCN 70.0% w/w, pH 10.0, 5° C.): 0.2 mg/mL | Peptide concentration after 180 min (MeCN 70.0% w/w, pH 10.0, 5° C.): 0.3 mg/mL | Peptide concentration after 24 h (MeCN 70.0% w/w, pH 10.0, 5° C.): 0.4 mg/mL | Peptide concentration after 5 min (MeCN 70.0% w/w, pH 10.5, 5° C.): 0.2 mg/mL | Peptide concentration after 180 min (MeCN 70.0% w/w, pH 10.5, 5° C.): 0.2 mg/mL | Peptide concentration after 24 h (MeCN 70.0% w/w, pH 10.5, 5° C.): 0.4 mg/mL | Peptide concentration after 5 min (MeCN 70.0% w/w, pH 11.0, 5° C.): 0.2 mg/mL | Peptide concentration after 180 min (MeCN 70.0% w/w, pH 11.0, 5° C.): 0.2 mg/mL | Peptide concentration after 24 h (MeCN 70.0% w/w, pH 11.0, 5° C.): 0.5 mg/mL | GLP-1 peptide concentration (pH 9.00, 5 min, after removal of outliers): 0.6 mg/mL | GLP-1 peptide concentration (pH 9.00, 5 min, before removal of outliers): 0.6 mg/mL | GLP-1 peptide concentration (pH 9.00, 180 min, after removal of outliers): 3.4 mg/mL | GLP-1 peptide concentration (pH 9.00, 180 min, before removal of outliers): 3.4 mg/mL | GLP-1 peptide concentration (pH 9.00, 24 h, after removal of outliers): 1.4 mg/mL | GLP-1 peptide concentration (pH 9.00, 24 h, before removal of outliers): 1.4 mg/mL | GLP-1 peptide concentration (pH 9.50, 5 min, after removal of outliers): 0.5 mg/mL
Compound: CCCCCCCCCCCCCCCC(=O)N[C@@H](CCC(=O)NCCCC[C@H](NC(=O)[C@H](C)NC(=O)[C@H](C)NC(=O)[C@H](CCC(N)=O)NC(=O)CNC(=O)[C@H](CCC(=O)O)NC(=O)[C@H](CC(C)C)NC(=O)[C@H](Cc1ccc(O)cc1)NC(=O)[C@H](CO)NC(=O)[C@H](CO)NC(=O)[C@@H](NC(=O)[C@H](CC(=O)O)NC(=O)[C@H](CO)NC(=O)[C@@H](NC(=O)[C@H](Cc1ccccc1)NC(=O)[C@@H](NC(=O)CNC(=O)[C@H](CCC(=O)O)NC(=O)[C@H](C)NC(=O)[C@@H](N)Cc1cnc[nH]1)[C@@H](C)O)[C@@H](C)O)C(C)C)C(=O)N[C@@H](CCC(=O)O)C(=O)N[C@@H](Cc1ccccc1)C(=O)N[C@H](C(=O)N[C@@H](C)C(=O)N[C@@H](Cc1c[nH]c2ccccc12)C(=O)N[C@@H](CC(C)C)C(=O)N[C@H](C(=O)N[C@@H](CCCNC(=N)N)C(=O)NCC(=O)N[C@@H](CCCNC(=N)N)C(=O)NCC(=O)O)C(C)C)[C@@H](C)CC)C(=O)O [liraglutide, Arg34,Lys26-(N-epsilon-(gamma-L-glutamyl(N-alfa-hexadecanoyl)))-GLP-1(7-37)]
